Test: molar heat capacity at constant pressure
Settings: Liquid, Flow calorimetry

CC(=O)[O-].CCCCCCn1cc[n+](C)c1 [3-hexyl-1-methylimidazolium acetate]
Settings | molar heat capacity at constant pressure [J/K/mol]
308.3 K, 100 kPa | 446.98
308.6 K, 3940 kPa | 445.51
308.7 K, 7930 kPa | 444.39
308.7 K, 11720 kPa | 442.98
308.8 K, 16020 kPa | 442.23
317.5 K, 100 kPa | 451.85
317.5 K, 4020 kPa | 450.18
317.6 K, 8080 kPa | 449.27
317.8 K, 12320 kPa | 448.43
317.9 K, 16210 kPa | 447.35
327.4 K, 100 kPa | 455.72
327.5 K, 4030 kPa | 454.06
327.7 K, 8190 kPa | 452.63
327.8 K, 12480 kPa | 451.08
327.8 K, 16220 kPa | 450.18
337.2 K, 100 kPa | 460.35
337.3 K, 4120 kPa | 458.97
337.7 K, 8030 kPa | 457.41
337.8 K, 12180 kPa | 456.32
338 K, 16110 kPa | 454.87
345.9 K, 100 kPa | 466.57
346.2 K, 4120 kPa | 465.32
346.3 K, 8170 kPa | 463.82
346.5 K, 12410 kPa | 462.14
346.8 K, 16130 kPa | 460.75
355.3 K, 100 kPa | 472.17
355.6 K, 4120 kPa | 470.85
355.7 K, 8010 kPa | 469.29
355.9 K, 12430 kPa | 468.34
356.1 K, 16130 kPa | 466.81
365 K, 7990 kPa | 476.86
365.1 K, 12180 kPa | 475.05
365.4 K, 16100 kPa | 473.57
365.7 K, 100 kPa | 479.8
365.8 K, 4110 kPa | 478.25
374 K, 100 kPa | 485.51
374.2 K, 4020 kPa | 483.86
374.4 K, 8100 kPa | 482.22
374.7 K, 12380 kPa | 480.71
375 K, 16130 kPa | 479.24
383.9 K, 100 kPa | 491.39
384.1 K, 4100 kPa | 490.53
384.3 K, 7960 kPa | 489.08
384.4 K, 12530 kPa | 487.97
384.5 K, 16010 kPa | 486.3
394.9 K, 100 kPa | 496.24
395.1 K, 4070 kPa | 494.51
395.1 K, 8360 kPa | 493.11
395.2 K, 12770 kPa | 491.91
395.4 K, 16400 kPa | 490.48

CC(=O)[O-].CCn1cc[n+](C)c1 [1-ethyl-3-methylimidazolium acetate]
Settings | molar heat capacity at constant pressure [J/K/mol]
303.15 K, 100 kPa | 325.25
303.17 K, 4020 kPa | 324.22
303.21 K, 8050 kPa | 322.31
303.25 K, 12080 kPa | 321.03
303.27 K, 16030 kPa | 319.45
313.25 K, 100 kPa | 329.51
313.37 K, 4110 kPa | 327.89
313.42 K, 8060 kPa | 327.03
313.45 K, 12060 kPa | 326.25
313.49 K, 16090 kPa | 325.87
323.16 K, 100 kPa | 332.22
323.22 K, 4040 kPa | 330.61
323.28 K, 8020 kPa | 329.03
323.31 K, 12070 kPa | 327.19
323.34 K, 16130 kPa | 326.51
333.42 K, 100 kPa | 337.87
333.48 K, 4080 kPa | 336.14
333.52 K, 8030 kPa | 334.67
333.59 K, 12010 kPa | 333.16
333.61 K, 16090 kPa | 331.41
343.76 K, 100 kPa | 341.44
343.82 K, 4020 kPa | 340.21
343.85 K, 8030 kPa | 338.53
343.92 K, 12050 kPa | 337.42
343.98 K, 16050 kPa | 336.01
354.29 K, 100 kPa | 345.18
354.33 K, 4060 kPa | 343.89
354.38 K, 8020 kPa | 342.02
354.46 K, 12080 kPa | 340.87
354.52 K, 16090 kPa | 339.03
363.65 K, 100 kPa | 348.36
363.67 K, 4050 kPa | 346.97
363.72 K, 8060 kPa | 345.19
363.78 K, 12070 kPa | 344.06
363.82 K, 16030 kPa | 342.91
374.02 K, 100 kPa | 353.57
374.09 K, 4070 kPa | 352.06
374.11 K, 8010 kPa | 350.13
374.15 K, 12150 kPa | 348.47
374.18 K, 16110 kPa | 347.01
383.41 K, 100 kPa | 357.23
383.46 K, 4080 kPa | 355.56
383.51 K, 8040 kPa | 354.44
383.53 K, 12090 kPa | 353.71
383.55 K, 16050 kPa | 352.62
393.22 K, 100 kPa | 362.22
393.26 K, 4030 kPa | 361.14
393.31 K, 8070 kPa | 359.92
393.33 K, 12140 kPa | 358.14
393.35 K, 16090 kPa | 356.53
